Test results: patent publication US10131652B2, “Pyrimidinyloxy benzene derivatives as herbicides” (E. I. DU PONT DE NEMOURS AND COMPANY, priority 2014, dated 2018)
Where two headings read alike, the source gives them in different places.

What was measured:
Assay in all cases: Test E pre-/postemergence plant response
Format in all cases: in vivo
[1] = system: winter barley (Hordeum vulgare); conditions: scale 0 to 100, read-out: Plant response rating, Barley, Winter; for plant injury at 16 g/ha: 16 g ai/ha; for plant injury at 31 g/ha: 31 g ai/ha; for plant injury at 62 g/ha: 62 g ai/ha; for plant injury at 125 g/ha: 125 g ai/ha
Method in brief: (§1)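 Visual scores on a 0–100 scale (100 = complete control) were assigned against untreated controls 7–21 days after treatment in a controlled environment. Compounds, formulated with solvent plus surfactant, were applied to pre-emergence silt-loam sowings or to 1- to 4-leaf plants (2–18 cm) in potting medium.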

[2] = system: blackgrass (Alopecurus myosuroides); conditions: scale 0 to 100, read-out: Plant response rating, Blackgrass; for pest or weed control at 16 g/ha: 16 g ai/ha; for pest or weed control at 31 g/ha: 31 g ai/ha; for pest or weed control at 62 g/ha: 62 g ai/ha; for pest or weed control at 125 g/ha: 125 g ai/ha
Method in brief: as §1

wild oat (Avena fatua) = conditions: scale 0 to 100, read-out: Plant response rating, Oat, Wild; for pest or weed control at 16 g/ha: 16 g ai/ha; for pest or weed control at 31 g/ha: 31 g ai/ha; for pest or weed control at 62 g/ha: 62 g ai/ha; for pest or weed control at 125 g/ha: 125 g ai/ha
Method in brief: as §1

[3] = system: pigweed (Amaranthus retroflexus); conditions: scale 0 to 100, read-out: Plant response rating, Pigweed; for pest or weed control at 16 g/ha: 16 g ai/ha; for pest or weed control at 31 g/ha: 31 g ai/ha; for pest or weed control at 62 g/ha: 62 g ai/ha; for pest or weed control at 125 g/ha: 125 g ai/ha
Method in brief: as §1

[4] = system: wild radish (Raphanus raphanistrum); conditions: scale 0 to 100, read-out: Plant response rating, Radish, Wild; for pest or weed control at 16 g/ha: 16 g ai/ha; for pest or weed control at 31 g/ha: 31 g ai/ha; for pest or weed control at 62 g/ha: 62 g ai/ha; for pest or weed control at 125 g/ha: 125 g ai/ha
Method in brief: as §1

[5] = system: bluegrass (annual bluegrass, Poa annua); conditions: scale 0 to 100, read-out: Plant response rating, Bluegrass; for pest or weed control at 16 g/ha: 16 g ai/ha; for pest or weed control at 31 g/ha: 31 g ai/ha; for pest or weed control at 62 g/ha: 62 g ai/ha; for pest or weed control at 125 g/ha: 125 g ai/ha
Method in brief: as §1

[6] = system: winter wheat (Triticum aestivum); conditions: scale 0 to 100, read-out: Plant response rating, Wheat, Winter; for plant injury at 16 g/ha: 16 g ai/ha; for plant injury at 62 g/ha: 62 g ai/ha; for plant injury at 125 g/ha: 125 g ai/ha
Method in brief: as §1

[7] = system: canarygrass (Phalaris minor); conditions: scale 0 to 100, read-out: Plant response rating, Canarygrass; for pest or weed control at 16 g/ha: 16 g ai/ha; for pest or weed control at 31 g/ha: 31 g ai/ha; for pest or weed control at 62 g/ha: 62 g ai/ha; for pest or weed control at 125 g/ha: 125 g ai/ha
Method in brief: as §1

[8] = system: lambsquarters (Chenopodium album); conditions: scale 0 to 100, read-out: Plant response rating, Lambsquarters; for pest or weed control at 16 g/ha: 16 g ai/ha; for pest or weed control at 31 g/ha: 31 g ai/ha; for pest or weed control at 62 g/ha: 62 g ai/ha; for pest or weed control at 125 g/ha: 125 g ai/ha
Method in brief: as §1

[9] = system: windgrass (Apera spica-venti); conditions: scale 0 to 100, read-out: Plant response rating, Windgrass; for pest or weed control at 16 g/ha: 16 g ai/ha; for pest or weed control at 62 g/ha: 62 g ai/ha; for pest or weed control at 125 g/ha: 125 g ai/ha
Method in brief: as §1

kochia (Kochia scoparia) = conditions: Bassia scoparia, scale 0 to 100, read-out: Plant response rating, Kochia; for pest or weed control at 16 g/ha: 16 g ai/ha; for pest or weed control at 31 g/ha: 31 g ai/ha; for pest or weed control at 62 g/ha: 62 g ai/ha; for pest or weed control at 125 g/ha: 125 g ai/ha
Method in brief: as §1

[10] = post-emergence, 31 g ai/ha, Postemergence

Compound: Fc1cccc(Oc2ncc(Cl)cn2)c1-c1cc(C(F)F)no1 [Compound 144, 5-chloro-2-[2-[3-(difluoromethyl)-5-isoxazolyl]-3-fluorophenoxy]pyrimidine]
- plant injury at 16 g/ha ([1]; post-emergence, Postemergence): 30%
- plant injury at 31 g/ha ([1]; post-emergence, Postemergence): 20%
- plant injury at 62 g/ha ([1]; post-emergence, Postemergence): 35%
- plant injury at 125 g/ha ([1]; post-emergence, Postemergence): 45%
- plant injury at 16 g/ha ([1]; pre-emergence, Preemergence): 30%
- plant injury at 31 g/ha ([1]; pre-emergence, Preemergence): 35%
- plant injury at 62 g/ha ([1]; pre-emergence, Preemergence): 55%
- plant injury at 125 g/ha ([1]; pre-emergence, Preemergence): 55%
- pest or weed control at 16 g/ha ([2]; post-emergence, Postemergence): 25%
- pest or weed control at 31 g/ha ([2]; post-emergence, Postemergence): 50%
- pest or weed control at 62 g/ha ([2]; post-emergence, Postemergence): 60%
- pest or weed control at 125 g/ha ([2]; post-emergence, Postemergence): 85%
- pest or weed control at 16 g/ha ([2]; pre-emergence, Preemergence): 15%
- pest or weed control at 31 g/ha ([2]; pre-emergence, Preemergence): 75%
- pest or weed control at 62 g/ha ([2]; pre-emergence, Preemergence): 98%
- pest or weed control at 125 g/ha ([2]; pre-emergence, Preemergence): 100%
- pest or weed control at 16 g/ha (wild oat (Avena fatua); post-emergence, Postemergence): 20%
- pest or weed control at 31 g/ha (wild oat (Avena fatua); post-emergence, Postemergence): 25%
- pest or weed control at 62 g/ha (wild oat (Avena fatua); post-emergence, Postemergence): 65%
- pest or weed control at 125 g/ha (wild oat (Avena fatua); post-emergence, Postemergence): 90%
- pest or weed control at 16 g/ha (wild oat (Avena fatua); pre-emergence, Preemergence): 35%
- pest or weed control at 31 g/ha (wild oat (Avena fatua); pre-emergence, Preemergence): 30%
- pest or weed control at 62 g/ha (wild oat (Avena fatua); pre-emergence, Preemergence): 65%
- pest or weed control at 125 g/ha (wild oat (Avena fatua); pre-emergence, Preemergence): 75%
- pest or weed control at 16 g/ha ([3]; post-emergence, Postemergence): 98%
- pest or weed control at 31 g/ha ([3]; post-emergence, Postemergence): 100%
- pest or weed control at 62 g/ha ([3]; post-emergence, Postemergence): 100%
- pest or weed control at 125 g/ha ([3]; post-emergence, Postemergence): 100%
- pest or weed control at 16 g/ha ([3]; pre-emergence, Preemergence): 100%
- pest or weed control at 31 g/ha ([3]; pre-emergence, Preemergence): 100%
- pest or weed control at 62 g/ha ([3]; pre-emergence, Preemergence): 100%
- pest or weed control at 125 g/ha ([3]; pre-emergence, Preemergence): 100%
- pest or weed control at 16 g/ha ([4]; post-emergence, Postemergence): 100%
- pest or weed control at 31 g/ha ([4]; post-emergence, Postemergence): 100%
- pest or weed control at 62 g/ha ([4]; post-emergence, Postemergence): 100%
- pest or weed control at 125 g/ha ([4]; post-emergence, Postemergence): 100%
- pest or weed control at 16 g/ha ([4]; pre-emergence, Preemergence): 80%
- pest or weed control at 31 g/ha ([4]; pre-emergence, Preemergence): 80%
- pest or weed control at 62 g/ha ([4]; pre-emergence, Preemergence): 100%
- pest or weed control at 125 g/ha ([4]; pre-emergence, Preemergence): 100%
- pest or weed control at 16 g/ha ([5]; post-emergence, Postemergence): 25%
- pest or weed control at 31 g/ha ([5]; post-emergence, Postemergence): 45%
- pest or weed control at 62 g/ha ([5]; post-emergence, Postemergence): 55%
- pest or weed control at 125 g/ha ([5]; post-emergence, Postemergence): 65%
- pest or weed control at 16 g/ha ([5]; pre-emergence, Preemergence): 10%
- pest or weed control at 31 g/ha ([5]; pre-emergence, Preemergence): 15%
- pest or weed control at 62 g/ha ([5]; pre-emergence, Preemergence): 40%
- pest or weed control at 125 g/ha ([5]; pre-emergence, Preemergence): 85%
- plant injury at 16 g/ha ([6]; post-emergence, Postemergence): 20%
- plant injury at 31 g/ha [6, 10]: 30%
- plant injury at 62 g/ha ([6]; post-emergence, Postemergence): 35%
- plant injury at 125 g/ha ([6]; post-emergence, Postemergence): 70%
- plant injury at 16 g/ha ([6]; pre-emergence, Preemergence): 0%
- plant injury at 62 g/ha ([6]; pre-emergence, Preemergence): 25%
- plant injury at 125 g/ha ([6]; pre-emergence, Preemergence): 35%
- pest or weed control at 16 g/ha ([7]; post-emergence, Postemergence): 35%
- pest or weed control at 31 g/ha ([7]; post-emergence, Postemergence): 60%
- pest or weed control at 62 g/ha ([7]; post-emergence, Postemergence): 65%
- pest or weed control at 125 g/ha ([7]; post-emergence, Postemergence): 85%
- pest or weed control at 16 g/ha ([7]; pre-emergence, Preemergence): 35%
- pest or weed control at 31 g/ha ([7]; pre-emergence, Preemergence): 80%
- pest or weed control at 62 g/ha ([7]; pre-emergence, Preemergence): 100%
- pest or weed control at 125 g/ha ([7]; pre-emergence, Preemergence): 100%
- pest or weed control at 16 g/ha ([8]; post-emergence, Postemergence): 80%
- pest or weed control at 31 g/ha ([8]; post-emergence, Postemergence): 95%
- pest or weed control at 62 g/ha ([8]; post-emergence, Postemergence): 98%
- pest or weed control at 125 g/ha ([8]; post-emergence, Postemergence): 100%
- pest or weed control at 16 g/ha ([8]; pre-emergence, Preemergence): 100%
- pest or weed control at 31 g/ha ([8]; pre-emergence, Preemergence): 100%
- pest or weed control at 62 g/ha ([8]; pre-emergence, Preemergence): 100%
- pest or weed control at 125 g/ha ([8]; pre-emergence, Preemergence): 100%
- pest or weed control at 16 g/ha ([9]; post-emergence, Postemergence): 10%
- pest or weed control at 31 g/ha [9, 10]: 20%
- pest or weed control at 62 g/ha ([9]; post-emergence, Postemergence): 25%
- pest or weed control at 125 g/ha ([9]; post-emergence, Postemergence): 55%
- pest or weed control at 16 g/ha ([9]; pre-emergence, Preemergence): 10%
- pest or weed control at 62 g/ha ([9]; pre-emergence, Preemergence): 100%
- pest or weed control at 125 g/ha ([9]; pre-emergence, Preemergence): 100%
- pest or weed control at 16 g/ha (kochia (Kochia scoparia); post-emergence, Postemergence): 100%
- pest or weed control at 31 g/ha (kochia (Kochia scoparia); post-emergence, Postemergence): 100%
- pest or weed control at 62 g/ha (kochia (Kochia scoparia); post-emergence, Postemergence): 100%
- pest or weed control at 125 g/ha (kochia (Kochia scoparia); post-emergence, Postemergence): 100%
- pest or weed control at 16 g/ha (kochia (Kochia scoparia); pre-emergence, Preemergence): 98%
- pest or weed control at 31 g/ha (kochia (Kochia scoparia); pre-emergence, Preemergence): 100%
- pest or weed control at 62 g/ha (kochia (Kochia scoparia); pre-emergence, Preemergence): 100%
- pest or weed control at 125 g/ha (kochia (Kochia scoparia); pre-emergence, Preemergence): 100%
